The test has as its system C. albicans, non-albicans Candida spp. Aspergillus spp. in oral swabs from patients with oral candidiasis. As to the kind of experiment: Signs of fungal growth on 12 well plate test system supplemented with antifungal antibiotics. The format is cell-based. The following applies: naked eye examination, samples resistant to the antibiotic. Here is the method:
Oral swabs (n=6) from patients with confirmed oral candidiasis caused by C. albicans, non-albicans Candida spp. Aspergillus spp., were dissolved with PBS and 0.1 uL were plated on 12 well plate test system filled with Mixed Medium 1 (see above), Mixed Medium 2 (Sabouraud agar+Potato Dextrose Agar+vitamins B12+B7) (MM2), Sabouraud agar (SA), Potato Dextrose Agar (PDA), Sabouraud's Heart Infusion (SABHI) agar. 11 wells were filled with media supplemented with antibiotics (taken at mean concentration of each antibiotic achieved in lungs at different timpoints post drug administration)—Nystatin, Amphotericin B, Clotrimazole, Fluconazole, Isavuconazole, Terbinafin, Posaconazole, Voriconazole, Anidulafungin, Caspofungin, Micafungin. One well was antibiotic free.
Plates was incubated at 30 C and the analysis of the presence/absence of microbial growth was monitored every 15 minutes from […] to 5 h, then hourly from 5 h to 8 h and then at 18 and 24 h post plating with a naked eye.
Three methods (algorithms) how to analyze fungal growth were used.
Method (Algorithm) #1. Lab technician, analyzed the appearance of fungal growth by comparing the signs of fungal growth in each well supplemented with antibiotic(s) at certain timepoint, with the signs of funal growth in the same well at previous time point(s).
Method (Algorithm)#2. Lab technician analyzed the appearance of fungal growth by comparing the signs of fungal growth in each well supplemented with antibiotic(s) with fungal growth in antibiotic-free control
Method (Algorithm) #3. Lab technician analyzed the absence of fungal growth in the wells in fixed time period of 3.5 h; 5 h and 24 h.

[1] abbreviates: Method (Algorithm) #1, MM1 medium.
Where [2] appears, read: Method (Algorithm) #1, MM2 medium.
Setting [3] is: Method (Algorithm) #1, PDA medium.
[4] abbreviates: Method (Algorithm) #1, SA (Sabouraud agar).
Setting [5] is: Method (Algorithm) #1, SABHI medium.
[6] abbreviates: Method (Algorithm) #2, MM1 medium.
Where [7] appears, read: Method (Algorithm) #2, MM2 medium.
The mark [8] stands for this setting: Method (Algorithm) #2, PDA medium.
The mark [9] stands for this setting: Method (Algorithm) #2, SA (Sabouraud agar).
Where [10] appears, read: Method (Algorithm) #2, SABHI medium.

Each structure is given as a SMILES string. Starred links: 1 amine or outer side, 2 acyl side, 3 side chain; linkers in the order of their positions; H or OH if unused. Positions of bridges follow the written chain, without caps; N, C: chain ends. Non-standard residues stand in square brackets, D forms with d. Residues, ends and D or L forms follow the SMILES beside them. *: point of attachment. hTyr(3S-OH,4S-OH,3'-OSO3H) = N[C@H](C(=O)O)[C@H](O)[C@@H](O)c1ccc(O)c(OS(=O)(=O)O)c1; pTerphenylCO(4''-OnC5H11) = CCCCCOc1ccc(-c2ccc(-c3ccc(C(=O)*)cc3)cc2)cc1; Orn(4R-OH,5R-OH) = O=C([C@H](C[C@@H](O)[C@@H](O)N[*:3])N[*:1])[*:2]; hTyr(3S-OH,4S-OH) = N[C@H](C(=O)O)[C@H](O)[C@@H](O)c1ccc(O)cc1; Pro(3S-OH,4S-Me) = C[C@H]1CN[C@H](C(=O)O)[C@H]1O; X1 = CCCCCOc1ccc(-c2cc(-c3ccc(C(=O)*)cc3)no2)cc1; Gln(3R-OH) = NC(=O)C[C@@H](O)[C@H](N)C(=O)O; Hyp = O=C(O)[C@@H]1C[C@@H](O)CN1

As to `C[C@@H]1[C@H](O)[C@@H](C)/C=C/C=C/C=C/C=C/C=C/C=C/C=C/[C@H](O[C@@H]2O[C@H](C)[C@@H](O)[C@H](N)[C@@H]2O)C[C@@H]2O[C@](O)(C[C@@H](O)C[C@@H](O)[C@H](O)CC[C@@H](O)C[C@@H](O)CC(=O)O[C@H]1C)C[C@H](O)[C@H]2C(=O)O` [Amphotericin B], the “Mean hour at which fungal growth became visible on the wells supplemented with a certain antibiotic” value (“Mean hour” for short) stood at 3 h under setting [1]; 5 h under setting [2]; 4.5 h under setting [3]; 6.5 h under setting [4]; 6 h under setting [5]; 5 h under setting [6]. Also, the “Mean hour” value runs as follows: under setting [7], 5 h; under setting [8], 7.5 h; under setting [9], 7 h; under setting [10], 8 h.

As to `CCCCCOc1ccc(-c2ccc(-c3ccc(C(=O)N[C@H]4C[C@@H](O)[C@@H](O)NC(=O)[C@@H]5[C@@H](O)[C@@H](C)CN5C(=O)[C@H]([C@@H](C)O)NC(=O)[C@H]([C@H](O)[C@@H](O)c5ccc(O)cc5)NC(=O)[C@@H]5C[C@@H](O)CN5C(=O)[C@H]([C@@H](C)O)NC4=O)cc3)cc2)cc1` [Anidulafungin] ({pTerphenylCO(4''-OnC5H11)}-[Orn(4R-OH,5R-OH)]T[Hyp][hTyr(3S-OH,4S-OH)]T[Pro(3S-OH,4S-Me)]; lactam 1-C), the “Mean hour” value was 4 h under setting [1]; 5 h under setting [2]; 6.5 h under setting [3]; 5.5 h under setting [4]; 6.5 h under setting [5]; 5.5 h under setting [6]. The “Mean hour” value under setting [7] was 4.5 h, the “Mean hour” value under setting [8] came to 7.5 h, the “Mean hour” value under setting [9] stood at 6.5 h and the “Mean hour” value under setting [10] came out at 8.5 h.

For `CC[C@H](C)C[C@H](C)CCCCCCCCC(=O)N[C@H]1C[C@@H](O)[C@@H](NCCN)NC(=O)[C@@H]2[C@@H](O)CCN2C(=O)[C@H]([C@H](O)CCN)NC(=O)[C@H]([C@H](O)[C@@H](O)c2ccc(O)cc2)NC(=O)[C@@H]2C[C@@H](O)CN2C(=O)[C@H]([C@@H](C)O)NC1=O` [Caspofungin], the “Mean hour” value under setting [1] amounted to 3.5 h; the “Mean hour” value under setting [2] was 5 h; the “Mean hour” value under setting [3] worked out at 6 h; the “Mean hour” value under setting [4] turned out to be 5.5 h; the “Mean hour” value under setting [5] was 7 h; the “Mean hour” value under setting [6] was 6 h. Also, the “Mean hour” value turned out to be 5.5 h under setting [7], 8 h under setting [8], 7.5 h under setting [9] and 8.5 h under setting [10].

`Clc1ccccc1C(c1ccccc1)(c1ccccc1)n1ccnc1` [Clotrimazole]: the “Mean hour” value under setting [1] amounted to 3.5 h; the “Mean hour” value under setting [2] amounted to 4.5 h; the “Mean hour” value under setting [3] came out at 7.5 h; the “Mean hour” value under setting [4] was found to be 5 h; the “Mean hour” value under setting [5] came to 6.5 h; the “Mean hour” value under setting [6] worked out at 4.5 h. For the same compound, the “Mean hour” value is, setting by setting: under setting [7], 6.5 h; under setting [8], 8.5 h; under setting [9], 7.5 h; under setting [10], 6.5 h.

As to `OC(Cn1cncn1)(Cn1cncn1)c1ccc(F)cc1F` [Fluconazole], the “Mean hour” value came out at 4 h under setting [1]; 4.5 h under setting [2]; 5 h under setting [3]; 6.5 h under setting [4]; 7.5 h under setting [5]; 5.5 h under setting [6]. The “Mean hour” value is 5.5 h under setting [7], 6.5 h under setting [8], 7 h under setting [9] and 8 h under setting [10].

On to `C[C@@H](c1nc(-c2ccc(C#N)cc2)cs1)[C@](O)(Cn1cncn1)c1cc(F)ccc1F` [Isavuconazole], for which the “Mean hour” value runs as follows: under setting [1], 5 h; under setting [2], 4.5 h; under setting [3], 6 h; under setting [4], 6.5 h; under setting [5], 7 h; under setting [6], 6 h. The “Mean hour” value under setting [7] worked out at 5.5 h, the “Mean hour” value under setting [8] came out at 7.5 h, the “Mean hour” value under setting [9] stood at 7.5 h and the “Mean hour” value under setting [10] was 8.5 h.

`CCCCCOc1ccc(-c2cc(-c3ccc(C(=O)N[C@H]4C[C@@H](O)[C@@H](O)NC(=O)[C@@H]5[C@@H](O)[C@@H](C)CN5C(=O)[C@H]([C@H](O)CC(N)=O)NC(=O)[C@H]([C@H](O)[C@@H](O)c5ccc(O)c(OS(=O)(=O)O)c5)NC(=O)[C@@H]5C[C@@H](O)CN5C(=O)[C@H]([C@@H](C)O)NC4=O)cc3)no2)cc1` [Micafungin] (X1-[Orn(4R-OH,5R-OH)]T[Hyp][hTyr(3S-OH,4S-OH,3'-OSO3H)][Gln(3R-OH)][Pro(3S-OH,4S-Me)]; lactam 1-C): the “Mean hour” value is 4.5 h under setting [1]; 5 h under setting [2]; 6 h under setting [3]; 6 h under setting [4]; 5 h under setting [5]; 4.5 h under setting [6]. Further, the “Mean hour” value runs as follows: under setting [7], 5.5 h; under setting [8], 7.5 h; under setting [9], 8 h; under setting [10], 6.5 h.

(Values after patent US20240182945A1, “PRODUCTS FOR REGULATION OF EUKARYOTIC AND MICROBIAL CELLS GROWTH” (priority 2021, published 2024).)
